The values below come from PubChem BioAssay AID1895 (NMMLSC, 2009).

Activity calls are given as the source filed them. The rule behind the calls is not given here.

One may read the EC50 as the concentration needed to bring the measured effect to its halfway point. One may read the Ki as the dissociation constant of the complex between target and ligand, obtained from inhibition or displacement. A high value points to weaker binding.

The target in the experiment is MEK5 PB1 domain binding to MEKK2 (MAP3K2) mutant PB1, human. The experiment is described as follows: inhibitors of MEK5 binding to mutant MEKK2, dose response, biochemical, bead multiplex flow cytometry (AID 1895). The conditions noted are these: Bead-based multiplex flow cytometry; for Ki: measured here: Ki for PB1 binding. A general note: In flow cytometry, cells or beads pass a laser one at a time.

As for `C#CCOCCOCCOCCNc1nc(N2CCN(C(=O)[C@H](Cc3cc4ccccc4[nH]3)n3cc([C@@H](N)C(C)CC)nn3)CC2)nc(N2CCN(C(=O)[C@H](Cc3cc4ccccc4[nH]3)n3cc([C@@H](N)CC(C)C)nn3)CC2)n1` (stereo partly specified), the 50% effective concentration (EC50) was 3.62 µM.

`CCN1/C(=C\c2ccc3cc(C)ccc3[n+]2CC)Sc2cc(C)c(C)cc21`: the EC50 was > 30 µM (inactive).

In the case of `Cc1ccc(-c2csc(NC(=O)C[n+]3cc(-c4ccc(C)cc4)n4c3CCC4)n2)cc1`, the EC50 was > 30 µM (inactive).

As to `CC(=O)c1c(C)[nH]c(C(=O)NC2=NCCS2)c1C`, the EC50 was > 30 µM (inactive).

For the molecule `COc1ccc2nc(C)cc(N/N=C/c3cccc(OC)c3O)c2c1`, the EC50 is > 30 µM (inactive).

With `CCOc1ccc(C2=C/C(=C/c3cccnc3)C(=O)O2)cc1`, the EC50 was > 30 µM (inactive).

In the case of `CSc1cccc(NC(=S)N(CCCN2CCCC2)Cc2cccn2Cc2ccc(Cl)cc2)c1`, the concentration for a half-maximal effect (EC50) was 7.1 µM.

Regarding `CCOC(=O)c1c(C)n(-c2ccc(C)cc2)c2ccc(OCC(O)CN3CCN(C)CC3)cc12` (stereo unspecified), the EC50 was > 30 µM (inactive).

`CCN1/C(=C/c2ccc3cc(C)cc(C)c3[n+]2CC)Sc2cc(C)ccc21`: the EC50 is 1.77 µM and the Ki is 1.73 µM.

Turning to `COc1ccc2[nH]c3c(C)c4ccncc4c(C)c3c2c1`, the EC50 was > 30 µM (inactive).

For the molecule `O=C1c2ccccc2-c2onc3ccc(NCCCn4ccnc4)c1c23`, the EC50 is > 30 µM (inactive).

Regarding `CCOC(=O)c1c(CSC(=N)N)n(-c2ccc(C)cc2)c2cc(Br)c(OC(C)=O)cc12`, the EC50 was 10.3 µM.

Regarding `CCCCCCCCCCOC(=O)Cn1c(COc2ccccc2C)[n+](C)c2ccccc21`, the half-maximal effective concentration (EC50) is 1.02 µM.

In the case of `COc1ccc(-n2nc3c(N)n[nH]c3cc2=O)cc1`, the EC50 was > 30 µM (inactive).

Turning to `O=C(CCCC(=O)N(CC(=O)NC1CCCC1)C1CCCC1)Nc1ccccn1`, the EC50 is > 30 µM (inactive).

As for `C#CCOCCOCCOCCNc1nc(N2CCN(C(=O)[C@H]([C@@H](C)CC)n3cc([C@@H](N)Cc4ccc(O)cc4)nn3)CC2)nc(N2CCN(C(=O)[C@H](CCCCN)n3cc([C@@H](N)CC(C)C)nn3)CC2)n1`, the EC50 was 14.7 µM.

For the molecule `CNc1nc(-c2c[nH]c3ccccc23)cs1`, the EC50 was > 30 µM (inactive).

With `CC[n+]1c(/C=C/C=C/N(C(C)=O)c2ccccc2)sc2ccccc21`, the EC50 was > 30 µM (inactive).

With `O=C(Nc1ccc(C2=NCCN2)cc1)c1ccc(C(=O)Nc2ccc(C3=NCCN3)cc2)c([N+](=O)[O-])c1`, the EC50 is > 30 µM (inactive).

As to `CCCCn1c(O)c(/C=C/C=C/C=Nc2ccccc2)sc1=S`, the EC50 entry is “inactive”.

On to `COc1ccc(N2CC(C(=O)Nc3nnc(SCc4ccccn4)s3)CC2=O)cc1` (stereo unspecified), for which the EC50 is > 30 µM (inactive).

For `C#CCOCCOCCOCCNc1nc(N2CCN(C(=O)C(Cc3ccc(O)cc3)n3cc(C(N)CC(C)C)nn3)CC2)nc(N2CCN(C(=O)C(Cc3cc4ccccc4[nH]3)n3cc(C(N)Cc4ccc(O)cc4)nn3)CC2)n1` (stereo unspecified), the EC50 was 12.8 µM.

As to `COCCNC(=O)CN(c1cc(Cl)ccc1OC)S(=O)(=O)c1ccc(C)c([N+](=O)[O-])c1`, the EC50 is > 30 µM (inactive).

For the molecule `Cc1ccccc1OCC(O)CNC1CCC(NCC(O)COc2ccccc2C)CC1` (stereo unspecified), the EC50 was > 30 µM (inactive).

In the case of `CC(C)N=c1cc2n(-c3ccc(Cl)cc3)c3ccccc3nc-2cc1Nc1ccc(Cl)cc1`, the EC50 result is “inactive”.

As to `COc1ccc(-c2[nH]ncc2CN2CCCCCCC2)c(OC)c1`, the EC50 was > 30 µM (inactive).

For `CCC(=C/c1sc2ccc3ccccc3c2[n+]1C)/C=C1\Sc2ccc3ccccc3c2N1C`, the EC50 entry is “inactive” and the Ki stood at 0.14 µM.

As to `COc1ccc(Cn2cc3c(-c4ccc(F)cc4)nnc-3c3cc(OC)c(OC)cc32)cc1`, the EC50 is > 30 µM (inactive).

On to `C#CCOCCOCCOCCNc1nc(N2CCN(C(=O)C([C@@H](C)CC)n3cc(C(N)COC(=O)C(F)(F)F)nn3)CC2)nc(N2CCN(C(=O)[C@H](CCCCN)n3cc(C(N)[C@H](C)CC)nn3)CC2)n1` (stereo partly specified), for which the EC50 is > 30 µM (inactive).

Turning to `CCN1C(c2ccccc2)=C(c2ccccc2)S/C1=C/C=C1\SC(=S)N(C)C1=O`, the EC50 result is “inactive” and the inhibitory constant (Ki) was 3.16 µM.

In the case of `CN1C(=O)/C(=C\c2ccc(-c3ccccc3)o2)SC1=S`, the EC50 is > 30 µM (inactive).

Regarding `COc1ccc(CNC[C@@H](CCCCN(C)Cc2ccc(OC)cc2)N2C[C@H](c3ccccc3)N(CCc3ccc(Cl)c(Cl)c3)C(=O)C2=O)cc1`, the EC50 is > 30 µM (inactive).

For the molecule `N=C(N)SCc1cn(-c2ccccc2)nc1-c1ccc(Br)cc1`, the EC50 is 8.53 µM.

With `O=C(c1cc(COc2c(F)cccc2F)on1)N1C[C@H]2CC[C@H]1C2`, the EC50 is > 30 µM (inactive).

With `COc1ccc(-c2csc(N(CCCN(C)C)C(=O)c3ccccc3Cl)n2)cc1`, the EC50 is > 30 µM (inactive).

Regarding `CCN1/C(=C/C=C/C=C/C=C/c2sc3ccccc3[n+]2CC)Sc2ccccc21`, the EC50 is > 30 µM (inactive).

Consider `COc1ccc(-c2cc(C#N)nc(N3CCNCC3)n2)cc1`, for which the EC50 was > 30 µM (inactive).

On to `OCCCCNCc1ccc(OCc2ccc(Cl)cc2Cl)cc1`, for which the EC50 was > 30 µM (inactive).

As for `CCN(Cc1ccccc1)S(=O)(=O)c1ccc(C(=O)N(CCCN(C)C)c2nc3ccc(F)cc3s2)cc1`, the EC50 was 7.18 µM.

On to `CCCN(CCC)CCNC(=O)c1cc2c(-c3ccc(Cl)cc3)nn(C)c2s1`, for which the concentration giving a half-maximal response (EC50) was 11.2 µM.

In the case of `Cc1nc(N)sc1-c1csc(Nc2ncccn2)n1`, the EC50 is > 30 µM (inactive).

Turning to `Cc1ccc(CN2CCSc3ccc(C(=O)NC4CCN(Cc5ccccc5)CC4)cc32)cc1`, the EC50 is 4.92 µM.

In the case of `Cc1ccc(-n2cc(CNCCCn3ccnc3C)c(-c3ccc(F)cc3)n2)cc1`, the EC50 is > 30 µM (inactive).

Regarding `CCOC(=O)C1=C(c2ccccc2)NC(N)=NC1c1ccc(OCc2ccc(C(=O)OC)cc2)cc1` (stereo unspecified), the EC50 was 2.38 µM.

On to `NC(=O)CSc1nnc(Cc2ccc3c(c2)OCO3)o1`, for which the EC50 is > 30 µM (inactive).

With `CCc1ccc(Nc2n[n+](-c3ccccc3)c(-c3ccc(OC)c(Br)c3)s2)cc1`, the EC50 was 4.62 µM.

With `CCCCCCOc1ccc(/C(C)=N/NC2=NCCN2)cc1[N+](=O)[O-]`, the 50% effective concentration (EC50) is 14.4 µM.

As for `S=c1[nH]nc(-c2ccc(Cl)cc2)n1-c1ccc2c(c1)OCCO2`, the EC50 was > 30 µM (inactive).

Take `CCc1ccc(Nc2n[n+](-c3ccccc3)c(-c3ccc(OCc4ccccc4)cc3)s2)cc1`: the EC50 is > 30 µM (inactive).

Turning to `CN1CCN(CC(O)COc2ccc(C34CC5CC(CC(C5)C3)C4)cc2)CC1` (stereo unspecified), the EC50 was > 30 µM (inactive).

As for `CCN(CC)CCOC(=O)c1ccc(NC(=O)c2cn(-c3ccccc3)nc2-c2cccs2)cc1`, the EC50 is > 30 µM (inactive).

In the case of `Cc1ccnc(NC(=O)C2(c3cccs3)CCOCC2)c1`, the EC50 was > 30 µM (inactive).

Take `COc1ccc(C2NCCc3c2[nH]c2ccccc32)cc1CN1CCc2cc(OC)c(OC)cc2C1C` (stereo unspecified): the half-maximal effective concentration (EC50) was 13.2 µM.

On to `CCc1ccc(-c2nn(-c3ccccc3)cc2CSC(=N)N)cc1`, for which the EC50 is 5.27 µM.

`C#CCOCCOCCOCCNc1nc(N2CCN(C(=O)[C@H]([C@@H](C)CC)n3cc([C@@H](N)CO)nn3)CC2)nc(N2CCN(C(=O)[C@H](Cc3cc4ccccc4[nH]3)n3cc([C@@H](N)C(C)CC)nn3)CC2)n1` (stereo partly specified): the EC50 was > 30 µM (inactive).

For the molecule `CCOC(=O)c1c(-c2ccc(-c3ccccc3)cc2)csc1NC(=O)CNCCN(C)C`, the EC50 was 1.09 µM.

`COc1ccc(Cn2c(SCc3ccccc3C)nc3cc(OC)c(OC)cc3c2=N)cc1`: the EC50 is > 30 µM (inactive).

`CCCN1C(=O)/C(=C\C=C2/Sc3ccccc3N2CC)SC1=S`: the EC50 entry was “inactive” and the inhibition constant (Ki) was determined as 2.61 µM.

Take `CC(C)n1cc(CN2CCC(C(=O)Nc3cccc(-c4cccc(Cl)c4)c3)CC2)cn1`: the EC50 was > 30 µM (inactive).

As to `CCN1CCN(Cc2ccc(NC(=O)c3ccc(C)c(NC(=O)C(=O)c4c[nH]c5ccccc45)c3)cc2C(F)(F)F)CC1`, the EC50 was > 30 µM (inactive).

Regarding `CCCCCc1cc(=O)oc2c(C(CCN3CCCCC3)c3ccc(OC)cc3)c(OC)cc(OC)c12` (stereo unspecified), the EC50 was > 30 µM (inactive).

For the molecule `C#CCOCCOCCOCCNc1nc(N2CCN(C(=O)[C@H](Cc3ccc(O)cc3)n3cc([C@@H](N)CC(C)C)nn3)CC2)nc(N2CCN(C(=O)[C@H](Cc3ccc(O)cc3)n3cc([C@@H](N)CC(C)C)nn3)CC2)n1`, the 50% effective concentration (EC50) is 25.1 µM.

Take `CN(C)CCNc1ncnc2c1sc1nc(-c3ccccc3)c3c(c12)CCCC3`: the half-maximal effective concentration (EC50) is 4.06 µM.

For the molecule `Cc1nc(Nc2cnc(/C=C/c3cc(C(=O)Nc4cccc(C(F)(F)F)c4)ccc3C)cn2)cc(N2CCNCC2)n1`, the EC50 was > 30 µM (inactive).

For the molecule `C#CCOCCOCCOCCNc1nc(N2CCN(C(=O)[C@H]([C@@H](C)CC)n3cc([C@@H](N)CC(C)C)nn3)CC2)nc(N2CCN(C(=O)[C@H](Cc3cc4ccccc4[nH]3)n3cc([C@@H](N)CC(C)C)nn3)CC2)n1`, the EC50 is 20.9 µM.

Take `C#CCOCCOCCOCCNc1nc(N2CCN(C(=O)C(Cc3ccc(O)cc3)n3cc(C(N)CC(C)C)nn3)CC2)nc(N2CCN(C(=O)C(Cc3cc4ccccc4[nH]3)n3cc(C(N)C(C)CC)nn3)CC2)n1` (stereo unspecified): the EC50 was > 30 µM (inactive).

On to `N#CC(C#N)=c1ccc2c(c1)N1C(c3ccccc3)=CC(c3ccccc3)C3CCCCC31N=2` (stereo unspecified), for which the EC50 is > 30 µM (inactive).

As to `CCN1CCN(CCNC(=O)c2ccc(/C=C3/Sc4ccccc4N(Cc4cccc(Cl)c4)C3=O)cc2)CC1`, the concentration giving a half-maximal response (EC50) is 6.53 µM.

Consider `CN(C)c1ccc(/C=C/C=C2/SC(=S)N(c3ccccc3)C2=O)cc1`, for which the EC50 entry was “inactive”.

Regarding `CCOC(=O)C1=C(c2ccccc2)NC(N)=NC1c1ccc(OCc2ccc(Cl)cc2)c(OC)c1` (stereo unspecified), the EC50 is 9.64 µM.

As for `COc1ccc(C(CCNCc2ccc(OC(C)C)cc2)c2ccccc2OC)cc1` (stereo unspecified), the EC50 was > 30 µM (inactive).

`CCCCCCCCCCOC(=O)Cn1c(COc2cccc(C)c2)[n+](C)c2ccccc21`: the EC50 was > 30 µM (inactive).
